Experimental data published in doi:10.1101/2022.12.02.518844v2 (bioRxiv, 2022).

Tested on: 1057 cells (GRPR^pos)
Test: Cell growth of GRPR^pos mouse melanoma cells
Type: cell-based
Details: 1 µM GRPR inhibitor + 10 nM GRP, low-serum medium, 48 h

Compound: COc1ccc(C2(CNC(=O)[C@](C)(Cc3c[nH]c4ccccc34)NC(=O)Nc3ccc([N+](=O)[O-])cc3)CCCCC2)nc1 [PD-176252]
- GRP-induced growth assessed by MTT: same blocking effect
